# Results: patent US20220218826A1, “COMPOSITION FOR TOPICAL USE FOR PHOTODYNAMIC THERAPY” (UNIVERSIDAD DE LA FRONTERA, priority 2019, published 2022)
# Columns and labels:
# [1] = test system: PDT-resistant HSC-1 cells; assay: Detection of protoporphyrin IX (PpIX) by flow cytometry; assay type: cell-based; conditions: 4 hours in the dark
# Procedure: For this, PDT-resistant cells, obtained as stated in example 1, were incubated with 150 mg/g MAL, plus EGCG (0.1 mg/g, 0.2 mg/g, 0.4 mg/g) or EDTA (1 mg/g, 2 mg/g, 3 mg/g) for 4 hours in the dark. Subsequently, the PpIX content in resistant cells was detected by flow cytometry, since PpIX is a fluorescent compound.
# [2] = test system: MAL-PDT-resistant HSC-1 cells; assay: MTT cell viability after MAL-PDT with EGCG and/or EDTA as adjuvants
# Procedure: The in vitro effect of EGCG and EDTA separately as adjuvants of MAL-PDT was assessed HSC-1 cells derived from squamous skin carcinoma were used. Previously, these cells received PDT cycles, in order to select those that are resistant to PDT. Therefore, the model used corresponds to MAL-PDT-resistant HSC-1 cells.
# The in vitro photodynamic conventional treatment consisted of incubating these cells with MAL 150 mg/g (photosensitiser) for 4 hours in the dark and after radiating them with 630 nm red light, with fluence of 4 J/cm^2. Cell viability was assessed 24 hours later by the MTT assay.
# Subsequently, this protocol was carried out in the same way in these cells, only with the following modification: when adding MAL, different concentrations of EDTA were added (0.5 mg/g, 1 mg/g, 1.5 mg/g, and 2 mg/g) or EGCG (0.2 mg/g, 0.4 mg/g, 0.6 mg/g, 0.8 mg/g). The MAL concentration of 150 mg/g was kept in all tests and experiments with irradiation (light) fluency same to the control at 4 J/cm^2, or without radiation, were carried out.
# [3] = test system: PDT-resistant HSC-1 cells; assay: Detection of reactive oxygen species (ROS) with Muse Oxidative Stress Kit; assay type: cell-based; conditions: all assessed EGCG concentrations (0.1, 0.2, 0.4 mg/g) + MAL 150 mg/g, 4 hours, red light irradiation
# Procedure: Given that in PDT, it is finally the reactive oxygen substances that cause cell damage and death, the production of these compounds was directly assessed. The same model as in example 3 was used, at the same EGCG concentrations stated in FIG. 3A, in order to assess the production of ROS generated in MAL-PDT. Following the previous methodology, after incubating the cells for 4 hours, these received red light irradiation. For ROS detection, these were incubated with a probe (Muse™ Oxidative Stress Kit|MCH100111—Merck Millipore) for 30 minutes and was assessed in a cell analyzer.
compound,measurement,setting,value
"O=C(O)CN(CCN(CC(=O)O)CC(=O)O)CC(=O)O [EDTA, ethylenediaminetetraacetic acid]",population that contained PpIX,"[1]; MAL 150 mg/g plus EDTA (1, 2, 3 mg/g)",≤ 13%
same,effect of EDTA in MAL-PDT on viability,"[2]; EDTA, only at 2 mg/g, + MAL 150 mg/g, light 4 J/cm^2",significant
"COC(=O)CCC(=O)CN [MAL, methyl aminolevulinate]",population that contained PpIX,[1]; MAL 150 mg/g alone,5%
same,HSC-1 resistant cells survived PDT,"[2]; control MAL-PDT: MAL 150 mg/g, 4 hours in the dark, 630 nm red light, 4 J/cm^2, MTT 24 hours later",~50%
"O=C(O[C@@H]1Cc2c(O)cc(O)cc2O[C@@H]1c1cc(O)c(O)c(O)c1)c1cc(O)c(O)c(O)c1 [EGCG, epigallocatechin galate]",population that contained PpIX,"[1]; MAL 150 mg/g plus EGCG (0.1, 0.2, 0.4 mg/g)",≤ 18%
same,ROS concentration relative to the control,[3],doubled or even tripled
same,survival rate,"[2]; EGCG from 0.4 mg/g + MAL 150 mg/g, light 4 J/cm^2",0
